Columns and labels:
[1] = Determination of bioavailability, stomach (oral gavage) v. intraduodenal administration; type: in vivo, Sprague dawley rats; settings: 20 mg/kg in Captex 355, fed female rats; for AUC / Cmax: plasma
Description: Fed female Sprague dawley rats, 225-250 g with surgically implanted intra-duodenal catheters were obtained commercially. Rats were dosed solutions of ibrutinib via bolus injection: oral gavage was done to measure exposure after oral dosing, or dosing via administration through the intra-duodenal catheter to measure exposure bypassing the stomach. Ibrutinib was dosed at 20 mg/kg at a dose volume of 2 ml/kg. Blood was withdrawn at time points out to 24 hours and Ibrutinib quantitated via LC/MS/MS to obtain plasma concentrations. PK parameters were calculated via commercially available software and measures of exposure were used to assess differences in dosing routes.

[2] = rats, reported; cited from earlier work

F (bioavailability) ([1]; ID (intra-duodenal catheter)): 100%
AUC ([1]; ID (intra-duodenal catheter)): 4943 ng·h/mL
Cmax ([1]; ID (intra-duodenal catheter)): 884 ng/mL
F (bioavailability) ([1]; PO (oral gavage)): 21%
AUC ([1]; PO (oral gavage)): 998 ng·h/mL
Cmax ([1]; PO (oral gavage)): 243 ng/mL
Substance: ibrutinib
oral bioavailability [2]: 22.8%
